One may read the IC50 as the concentration at which inhibition is half-maximal. A low value points to greater potency.

Structures are written as SMILES. Where a SMILES comes first, the peptide text is derived from it. Bridges are numbered along the chain shown (N, C = ends). [ ]: non-standard residue; d: D form. Tyr(3-NH2) = Nc1cc(C[C@H](N)C(=O)O)ccc1O; Gla = N[C@@H](CC(C(=O)O)C(=O)O)C(=O)O; Aad = N[C@@H](CCCC(=O)O)C(=O)O; Ac6c = NC1(C(=O)O)CCCCC1; Ava = NCCCCC(=O)O

The target in this test is Growth factor receptor-bound protein 2 (Homo sapiens, UniProt P62993). Kind of test: Competitive binding affinity against Growth factor receptor bound protein 2 was assessed using SHC(pTyr-317) phospopeptide in biacore surface plasmon resonance (SPR) method. For orientation: In SPR one partner is held on a chip, and binding of the other changes the refractive index at the surface.
Chain of Growth factor receptor-bound protein 2 (P62993 whole entry): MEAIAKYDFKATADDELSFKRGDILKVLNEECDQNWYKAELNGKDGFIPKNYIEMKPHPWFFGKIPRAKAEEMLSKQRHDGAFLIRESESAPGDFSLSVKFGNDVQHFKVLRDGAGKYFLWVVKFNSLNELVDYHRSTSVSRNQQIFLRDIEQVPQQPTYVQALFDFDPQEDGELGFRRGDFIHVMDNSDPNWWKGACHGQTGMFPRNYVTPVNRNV
As to `CC(C)C[C@@H]1NC(=O)[C@H](CC(C(=O)O)C(=O)O)NC(=O)C[S+]([O-])C[C@H](C(N)=O)NC(=O)CCCCNC(=O)[C@H](C(C)C)NC(=O)[C@H](CC(N)=O)NC(=O)C2(CCCCC2)NC(=O)[C@H](Cc2ccc(O)c(N)c2)NC1=O` (stereo partly specified), the IC50 was 1.08 µM.
In turn, `CC(C)C[C@@H]1NC(=O)[C@H](CCCC(=O)O)NC(=O)C[S+]([O-])C[C@@H](C(N)=O)NC(=O)CCCCNC(=O)[C@H](C(C)C)NC(=O)[C@H](CC(N)=O)NC(=O)C2(CCCCC2)NC(=O)[C@H](Cc2ccc(O)cc2)NC1=O` (stereo partly specified) had an IC50 of 9.8 µM. This IC50 is about 9.1-fold higher than that of the compound before.
For `CC(C)C[C@@H]1NC(=O)[C@H](CCCC(=O)O)NC(=O)C[S+]([O-])C[C@H](C(N)=O)NC(=O)CCCCNC(=O)[C@H](C(C)C)NC(=O)[C@H](CC(N)=O)NC(=O)C2(CCCCC2)NC(=O)[C@H](Cc2ccc(O)cc2)NC1=O` (stereo partly specified), the IC50 is 84.5 µM.
The compound `CC(C)C[C@@H]1NC(=O)[C@H](CC(C(=O)O)C(=O)O)NC(=O)C[S+]([O-])C[C@@H](C(N)=O)NC(=O)CCCCNC(=O)[C@H](C(C)C)NC(=O)[C@H](CC(N)=O)NC(=O)C2(CCCCC2)NC(=O)[C@H](Cc2ccc(O)c(N)c2)NC1=O` (stereo partly specified) yielded an IC50 of 0.05 µM.
In the case of `CC(C)C[C@@H]1NC(=O)[C@H](CCCC(=O)O)NC(=O)CSC[C@@H](C(N)=O)NC(=O)CCCCNC(=O)[C@H](C(C)C)NC(=O)[C@H](CC(N)=O)NC(=O)C2(CCCCC2)NC(=O)[C@H](Cc2ccc(O)cc2)NC1=O` ({CH2CO}-[Aad]LY[Ac6c]NV[Ava]C-NH2; thioether N-8) it was 11.4 µM.
For `CC(C)C[C@@H]1NC(=O)[C@H](CC(C(=O)O)C(=O)O)NC(=O)CSC[C@@H](C(N)=O)NC(=O)CCCCNC(=O)[C@H](C(C)C)NC(=O)[C@H](CC(N)=O)NC(=O)C2(CCCCC2)NC(=O)[C@H](Cc2ccc(O)c(N)c2)NC1=O` ({CH2CO}-[Gla]L[Tyr(3-NH2)][Ac6c]NV[Ava]C-NH2; thioether N-8), the IC50 worked out at 0.16 µM.
